Counter-ions that a name gives are not always drawn.
How the values were obtained:
[1] = target: T1, integrin α4β1 (Homo sapiens, UniProt P05556+P13612); experiment: Integrin α4β1-mediated cell adhesion assay (Jurkat cells on VCAM); format: cell-based; conditions: for IC50: Jurkat cells adhering to VCAM-1, α4β1-mediated cell adhesion; for α4β1/α4β7: selectivity ratio, Jurkat (α4β1)/VCAM-1 IC50 over RPMI-8866 (α4β7)/MadCAM-1 IC50
T1 construct: Jurkat cells were collected, washed twice using DPBS buffer; endogenous in cells; host or cells: Jurkat cells
T1 sequence (P05556 21-798, one chain of several): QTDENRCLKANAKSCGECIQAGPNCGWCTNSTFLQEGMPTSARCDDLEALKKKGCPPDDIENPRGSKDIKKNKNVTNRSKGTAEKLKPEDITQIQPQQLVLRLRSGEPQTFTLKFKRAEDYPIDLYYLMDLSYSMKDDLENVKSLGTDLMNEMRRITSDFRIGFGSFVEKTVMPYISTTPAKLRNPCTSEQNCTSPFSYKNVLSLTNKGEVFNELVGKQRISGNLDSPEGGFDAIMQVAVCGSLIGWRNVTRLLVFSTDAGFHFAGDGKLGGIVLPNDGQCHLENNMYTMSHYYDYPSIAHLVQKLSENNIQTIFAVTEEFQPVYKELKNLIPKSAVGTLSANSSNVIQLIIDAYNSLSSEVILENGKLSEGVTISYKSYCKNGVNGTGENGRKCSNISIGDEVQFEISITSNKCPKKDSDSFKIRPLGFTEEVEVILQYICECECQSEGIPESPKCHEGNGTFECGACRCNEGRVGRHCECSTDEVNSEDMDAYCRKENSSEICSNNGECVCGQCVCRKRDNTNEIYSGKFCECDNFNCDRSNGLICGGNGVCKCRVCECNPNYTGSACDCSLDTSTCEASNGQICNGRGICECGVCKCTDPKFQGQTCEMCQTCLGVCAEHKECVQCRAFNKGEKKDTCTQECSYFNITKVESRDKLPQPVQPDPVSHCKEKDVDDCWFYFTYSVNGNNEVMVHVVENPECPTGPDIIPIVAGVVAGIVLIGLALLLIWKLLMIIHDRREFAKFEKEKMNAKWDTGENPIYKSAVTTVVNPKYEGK
Protocol: VCAM was formulated into a final concentration of […] with a coating buffer, 50 μl of the solution was transferred to a 96-well plate, and the plate was coated with same at 4° C. overnight. The plate was washed with coating buffer three times, then 150 μl of a blocking solution (coating buffer containing 1% BSA) was added, and the plate was blocked at 37° C. for 1 h. Jurkat cells were collected, washed twice using DPBS buffer, and then resuspended to 4×10^6 cells/ml with an action buffer. 50 μl of the cell suspension was transferred to a 96-well plate so that the cell density reached 2×10^5 cells/well. Then 1 μl of the test compound at different concentration or DMSO was added and the plate was incubated at 37° C. for 1 h. The plate was washed with coating buffer to remove non-adherent cells. 50 μl of a substrate (4-nitrophenyl-N-acetyl-β-D-glucosaminide) was added and the plate was incubated at 37° C. for 2 h.
Coating buffer: DMEM+20 mM HEPES+0.4 mM MnCl2
Action buffer: DMEM+20 mM HEPES+0.1% BSA+0.4 mM MnCl2
DMEM: dulbecco's modified eagle medium;
HEPES: 2-[4-(2-hydroxyethyl)piperazin-1-yl]ethanesulfonic acid

[2] = target: T2, integrin α4β7 (Homo sapiens, UniProt P13612+P26010); experiment: Integrin α4β7 cell adhesion assay (RPMI8866 cells on MAdCAM-1); format: cell-based; conditions: RPMI8866 cells adhering to MAdCAM-1; α4β7-mediated cell adhesion; read-out: RPMI-8866 (α4β7)/MadCAM-1 IC50
T2 sequence (P13612 34-1032): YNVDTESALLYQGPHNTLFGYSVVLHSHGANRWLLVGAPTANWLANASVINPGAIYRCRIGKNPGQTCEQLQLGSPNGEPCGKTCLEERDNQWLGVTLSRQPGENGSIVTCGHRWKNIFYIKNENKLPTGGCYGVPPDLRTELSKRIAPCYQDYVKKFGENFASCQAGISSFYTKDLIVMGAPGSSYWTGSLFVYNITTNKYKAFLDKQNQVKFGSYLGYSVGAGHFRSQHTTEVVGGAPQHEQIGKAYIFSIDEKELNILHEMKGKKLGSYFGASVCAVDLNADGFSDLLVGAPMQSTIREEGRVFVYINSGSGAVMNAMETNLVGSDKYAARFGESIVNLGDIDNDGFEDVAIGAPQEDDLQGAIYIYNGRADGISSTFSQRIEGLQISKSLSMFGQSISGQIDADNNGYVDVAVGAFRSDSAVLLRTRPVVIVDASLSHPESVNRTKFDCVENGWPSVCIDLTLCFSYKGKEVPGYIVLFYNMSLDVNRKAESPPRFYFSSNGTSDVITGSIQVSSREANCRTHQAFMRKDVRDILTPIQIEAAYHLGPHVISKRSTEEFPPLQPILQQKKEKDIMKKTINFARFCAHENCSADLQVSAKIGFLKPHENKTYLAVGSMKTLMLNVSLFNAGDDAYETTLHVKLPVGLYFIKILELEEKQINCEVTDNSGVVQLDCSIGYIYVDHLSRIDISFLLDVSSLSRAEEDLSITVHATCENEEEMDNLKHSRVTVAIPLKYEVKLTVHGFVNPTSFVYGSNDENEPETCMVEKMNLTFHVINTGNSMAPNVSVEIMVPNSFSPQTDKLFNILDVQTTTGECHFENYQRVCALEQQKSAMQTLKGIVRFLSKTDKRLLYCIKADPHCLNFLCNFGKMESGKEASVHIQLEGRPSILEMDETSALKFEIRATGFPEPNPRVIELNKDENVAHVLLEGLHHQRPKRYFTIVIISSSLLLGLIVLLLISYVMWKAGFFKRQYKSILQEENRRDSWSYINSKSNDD
T2 sequence (P26010 20-798): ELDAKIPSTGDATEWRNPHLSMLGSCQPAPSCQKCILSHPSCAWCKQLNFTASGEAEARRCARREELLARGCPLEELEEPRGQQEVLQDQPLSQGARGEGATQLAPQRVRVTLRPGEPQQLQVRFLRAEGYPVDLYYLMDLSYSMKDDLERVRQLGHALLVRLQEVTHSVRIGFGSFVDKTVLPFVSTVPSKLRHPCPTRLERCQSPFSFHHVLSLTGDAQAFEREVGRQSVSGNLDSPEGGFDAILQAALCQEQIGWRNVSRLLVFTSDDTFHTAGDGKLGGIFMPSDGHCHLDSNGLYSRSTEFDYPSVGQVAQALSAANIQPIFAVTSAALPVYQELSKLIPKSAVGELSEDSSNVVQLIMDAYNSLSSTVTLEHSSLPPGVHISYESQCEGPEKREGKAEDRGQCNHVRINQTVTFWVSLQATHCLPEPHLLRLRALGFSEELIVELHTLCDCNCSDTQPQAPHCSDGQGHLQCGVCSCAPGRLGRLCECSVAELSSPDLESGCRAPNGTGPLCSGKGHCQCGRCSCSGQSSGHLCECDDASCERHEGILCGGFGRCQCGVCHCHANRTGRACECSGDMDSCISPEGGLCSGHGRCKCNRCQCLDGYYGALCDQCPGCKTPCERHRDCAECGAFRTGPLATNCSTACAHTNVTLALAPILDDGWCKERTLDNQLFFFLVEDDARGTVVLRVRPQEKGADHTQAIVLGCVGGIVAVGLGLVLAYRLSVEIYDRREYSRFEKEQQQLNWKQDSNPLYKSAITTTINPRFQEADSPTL
Protocol: MAdCAM-1 was formulated with TBS buffer to a final concentration of […], 50 μl of the solution was transferred to a 96-well plate, and the plate was coated with same at 4° C. overnight. The plate was washed with TBS buffer three times, then 150 μl of a blocking solution (TBS buffer containing 1% BSA) was added, and the plate was blocked at 37° C. for 1 h. […] 50 μl of the cell suspension was transferred to a 96-well plate so that the cell density reached 2×10^5 cells/well. Then 1 μl of the compound at different concentrations or DMSO was added and the plate was incubated at 37° C. for 1 h or 2 h. The plate was washed with TBS buffer to remove non-adherent cells. 50 μl of a substrate (4-nitrophenyl-N-acetyl-o-D-glucosaminide) was added and the plate was incubated at 37° C. for 2 h. […] The IC50 value was calculated using GraphPad Prism 6 software.

[3] = Pharmacokinetic test in rats; format: in vivo, SD rats
Protocol: Experimental animals: Male SD rats, about 220 g, 6-8 weeks old, 6 rats/compound, purchased from Chengdu Ddossy Experimental Animals Co., Ltd.
Experimental design: on the day of the test, 6 SD rats/compound were randomly grouped according to their body weights. The animals were fasted with water available for 12 to 14 h one day before the administration and were fed 4 h after the administration.

[4] = Test of stability in liver microsomes (rat); format: in vitro ADME; conditions: 1 μM test compound, NADPH, 37° C.
Protocol: (§1) In this experiment, liver microsomes of three species, including monkey, rat and mouse, were used as in vitro models to evaluate the metabolic stability of the test compound.
(§2) At 37° C., 1 μM of the test compound was co-incubated with microsomal protein and coenzyme NADPH. At given time points of the reaction (5 min, 10 min, 20 min, 30 min, and 60 min), the reaction was terminated by adding ice-cold acetonitrile containing an internal standard. The LC-MS/MS method was used to measure the concentration of the test compound in the sample. T1/2 was calculated using the natural logarithm (ln) of the residual rate of the drug in the incubation system and the incubation time. In addition, the intrinsic clearance in liver microsomes CLint(mic) and the intrinsic clearance in liver CLint(Liver) were further calculated.

[5] = Test of stability in liver microsomes (mouse); format: in vitro ADME; conditions: 1 μM test compound, NADPH, 37° C.
Protocol: as §1, §2

[6] = Test of stability in liver microsomes (monkey); format: in vitro ADME; conditions: 1 μM test compound, NADPH, 37° C.
Protocol: as §1, §2

[7] = read-out: Hepatic intrinsic clearance CLint(liver)
[8] = read-out: Hepatic microsomal intrinsic clearance CLint (mic)

Which IC50 [1] does the source give for Cc1cc(F)cc(C)c1-c1cc(C(CC(=O)O)NC(=O)C(CC(C)C)n2cc(CCN(C)CC3CC3(F)F)c(C(F)(F)F)cc2=O)cc2c1CCC2 (single isomer, unassigned) [Compound 1-2] here?
Its IC50 is over 100 nM.

With COc1cc(C)c(-c2c(F)c(C(CC(=O)O)NC(=O)C(CC(C)C)n3cc(CCN(C)C)c(C(F)(F)F)cc3=O)c(F)c3c2CCC3)c(C)c1 (single isomer, unassigned) [Trifluoroacetate salt of compound 21-2] as the molecule, how does the IC50 [2] read?
Its IC50 is under 1 nM.

And the IC50 [1]?
The IC50 was over 500 nM.

Which IC50 [1] does the source give for Cc1cc(F)cc(C)c1-c1c(F)c(C(CC(=O)O)NC(=O)[C@H](CC(C)C)n2cc(CCC3CCCN3C)c(C(F)(F)F)cc2=O)c(F)c2c1CCC2 (single isomer, unassigned) [Trifluoroacetate salt of compound 28-2] here?
The IC50 was over 100 nM.

With COc1cc(C)c(-c2c(F)c(C(CC(=O)O)NC(=O)C(CC(C)C)n3cc(CCN(C)C)c(C(F)(F)F)cc3=O)c(F)c3c2CCC3)c(C)c1 (stereo not shown) [Compound 21-A] as the molecule, how does the IC50 [1] read?
The IC50 was over 100 nM.

Which CL ([3]; IV: 1 mg/kg) does the source give for Cc1cc(F)cc(C)c1-c1c(F)c(C(CC(=O)O)NC(=O)[C@H](CC(C)C)n2cc(CC3CN(C(C)C)C3)c(C(F)(F)F)cc2=O)c(F)c2c1CCC2 (stereo partly shown) [Compound 32-2] here?
The CL was 20.2 mL/min/kg.

With Cc1ccc2[nH]ncc2c1-c1c(F)c(C(CC(=O)O)NC(=O)[C@H](CC(C)C)n2cc(CCN(C)C)c(C(F)(F)F)cc2=O)c(F)c2c1CCC2 (stereo partly shown) [Compound 33-2] as the molecule, how does the IC50 [2] read?
Its IC50 is under 0.5 nM.

And the IC50 [1]?
The IC50 was over 100 nM.

And the α4β1/α4β7 [1]?
The α4β1/α4β7 was 643.

For [2H]C([2H])([2H])Oc1cc(C)c(-c2c(F)c([C@H](CC(=O)O)NC(=O)C(CC(C)C)n3cc(CCN4CCC4)c(C(F)(F)F)cc3=O)c(F)c3c2CCC3)c(C)c1 (stereo partly shown) [Compound 40-2], which IC50 [2] is on record?
The IC50 was under 0.5 nM.

What about the IC50 [1] of the same molecule?
The IC50 was over 300 nM.

What about the α4β1/α4β7 [1] of the same molecule?
The α4β1/α4β7 was 1143.

For Cc1cc(-c2c(C)cc(F)cc2C)cc([C@H](CC(=O)O)NC(=O)[C@H](CC(C)C)n2cc(CCN(C)C)c(C(F)(F)F)cc2=O)c1F [Control compound A], which F ([3]; PO: 10 mg/kg vs iv […] (footnote, control compound A)) is on record?
The F was 23.9%.

And the AUC ([3]; male, SD, rat, plasma, PO: 10 mg/kg (footnote, control compound A))?
The AUC was 900 ng·h/mL.

And the clearance ([3]; male, SD, rat, plasma, iv 2.5 mg/kg (footnote, control compound A))?
Its clearance is 45.8 mL/min/kg.

What about the half-life at 1 μM [4] of the same molecule?
Its half-life at 1 μM is 35.7 min.

And the CLint scaled at 1 μM [4, 7]?
Its CLint scaled at 1 μM is 69.9 mL/min/kg.

And the microsomal CLint at 1 μM [4, 8]?
The microsomal CLint at 1 μM was 38.8 µL/min/mg.

What about the half-life at 1 μM [5] of the same molecule?
The half-life at 1 μM was 49.3 min.

What about the CLint scaled at 1 μM [5, 7] of the same molecule?
The CLint scaled at 1 μM was 111 mL/min/kg.

What about the microsomal CLint at 1 μM [5, 8] of the same molecule?
The microsomal CLint at 1 μM was 28.1 µL/min/mg.

And the half-life at 1 μM [6]?
Its half-life at 1 μM is 10.6 min.

And the CLint scaled at 1 μM [6, 7]?
Its CLint scaled at 1 μM is 176 mL/min/kg.

What about the microsomal CLint at 1 μM [6, 8] of the same molecule?
Its microsomal CLint at 1 μM is 130 µL/min/mg.

Which results are given for Cc1cc(F)cc(C)c1-c1cc(C(CC(=O)O)NC(=O)C(CC(C)C)n2cc(CC3CCN(C(C)C)CC3)c(C(F)(F)F)cc2=O)cc2c1CCC2 (stereo not shown) [Trifluoroacetate salt of compound 22-2]?
IC50 [2]: < 0.5 nM; IC50 [1]: > 100 nM

What does the source list for Cc1cc(F)cc(C)c1-c1c(F)c(C(CC(=O)O)NC(=O)C(CC(C)C)n2cc(CCC3CCN(C)C3)c(C(F)(F)F)cc2=O)c(F)c2c1CCC2 (stereo not shown) [Trifluoroacetate salt of compound 26-2]?
IC50 [2]: < 1 nM; IC50 [1]: > 100 nM

Reference: patent US20260274797A1, “PROPIONIC ACID DERIVATIVE AND USE THEREOF IN MEDICINE” (Xizang Haisco Pharmaceutical Co., Ltd., priority 2022, published 2026)
